Experimental data as given in patent US7056890B2, “Combination therapy for effecting weight loss and treating obesity” (VIVUS, Inc., priority 1999, dated 2006).

Assays:
[1] = Trial of phentermine in combination with topiramate to effect weight loss in patients; format: in vivo, human; conditions: follow-up 2-9 weeks
Protocol: Patients as part of the following trial were treated according to the following dosage regimen. Patients took phentermine at a dose of 15 mg daily throughout the weight loss program, before breakfast. For the first 6 days, patients took one 25 mg tablet of topiramate before supper. For the next 6 days, patients took two 25 mg tablets of topiramate before supper. For the next 7 days (days 13–19), patients took 100 mg before supper daily using 4–25 mg tablets of topiramate daily. For days 20–26, patients took 150 mg of topiramate daily consisting of one-half of a 200 mg tablet and two 25-mg mg tablets of topiramate. From that point on, unless instructed otherwise by the physician, patients continued to take one 200 mg topiramate tablet daily before supper and continued the 15 mg phentermine daily in the morning. Patients were advised to drink at least eight (8) full glasses of water daily to reduce the risk of kidney stones which may result from taking topiramate.
Patients were advised that while the effect of phentermine is fairly rapid, the effect of topiramate is slower in onset. The weight reduction effect of topiramate will continue for as long as 18 months on the medication. That is, the patient can expect to continue gradual weight loss for up to 18 months on the medication. Of course, weight loss is maximal if the patient follows diet and/or exercise programs. The weight loss should exceed 15% of the patients starting weight. Thus, if the patient weighs about 200 pounds as of the start date, he/she might expect to lose at least 30 pounds in a period of 12–18 months. The following patient data has been collected.
A total of thirteen patients were treated for 1–9 months with phentermine (15 mg daily) in the morning and up to 400 mg of topiramate (median dose 200 mg), in the evening. […] Along with taking medication, patients were instructed to walk at least 30 minutes three times per week and to follow a low fat diet. No patients had taken diet medication for at least 3 months prior to treatment. Average baseline BMI was 32.5 (range 26–48).

[2] = Case history of patient(B), topiramate added to phentermine; format: in vivo, human; conditions: on phentermine after Redux withdrawal
Protocol: They once weighed as much as 395 pounds. When Redux was still on the mark in the United States, they were treated with a combination of diet, exercise, Redux and phentermine. Their lowest weight attained was 285 pounds. When Redux was withdrawn from the market, they remained on phentermine but gained weight back to 295–300 pounds. When topiramate was added to their regimen, they managed to lose 25 pounds and is currently at 271 pounds, their lowest weight since they were […].

[3] = literature studies; cited from earlier work

Row | SMILES | weight loss, drug compared with placebo [3] | further results
1 | CC(C)CC(N(C)C)C1(c2ccc(Cl)cc2)CCC1.Cl (centres unmarked) [Meridia] |  | Follow-Up Weight (lbs) ([1]; individual patients (one per line), phentermine 15 mg daily, topiramate titrated 25 to 200 mg daily): 177 lbs; Follow-Up Blood Pressure ([1]; individual patients): 120/80; % Weight Loss ([1]; individual patients, versus start weight): 2.7%
2 | CC(C)(N)Cc1ccccc1 [phentermine] | about 5 % of body weight | weight regained [2]: 295–300 pounds
3 | CC(C)CC(N(C)C)C1(c2ccc(Cl)cc2)CCC1 (centres unmarked) [sibutramine] | about 5 % of body weight | 
4 | CCCCCCCCCCC[C@@H](C[C@@H]1OC(=O)[C@H]1CCCCCC)OC(=O)[C@H](CC(C)C)NC=O [orlistat] | about 5 % of body weight | 
5 | CCN[C@@H](C)Cc1cccc(C(F)(F)F)c1 [dexfenfluramine] | about 5 % of body weight | 
